Measured values: US12195479B2, “Five- and six-membered compound, and preparation method therefor and pharmaceutical composition and use thereof” (HANGZHOU POLYMED BIOPHARMACEUTICALS, INC., priority 2021, dated 2025)

Assays:
FLT3 kinase = target: T1, FLT3 kinase (Homo sapiens, UniProt P36888); experiment: Kinase inhibition, fluorescence microfluidic mobility shift assay (FLT3); assay type: biochemical; details: substrate peptide FAM-P2 3 μM, ATP 97 μM; one hour at 28° C.; assayed in duplicate
T1 sequence (P36888 564-993): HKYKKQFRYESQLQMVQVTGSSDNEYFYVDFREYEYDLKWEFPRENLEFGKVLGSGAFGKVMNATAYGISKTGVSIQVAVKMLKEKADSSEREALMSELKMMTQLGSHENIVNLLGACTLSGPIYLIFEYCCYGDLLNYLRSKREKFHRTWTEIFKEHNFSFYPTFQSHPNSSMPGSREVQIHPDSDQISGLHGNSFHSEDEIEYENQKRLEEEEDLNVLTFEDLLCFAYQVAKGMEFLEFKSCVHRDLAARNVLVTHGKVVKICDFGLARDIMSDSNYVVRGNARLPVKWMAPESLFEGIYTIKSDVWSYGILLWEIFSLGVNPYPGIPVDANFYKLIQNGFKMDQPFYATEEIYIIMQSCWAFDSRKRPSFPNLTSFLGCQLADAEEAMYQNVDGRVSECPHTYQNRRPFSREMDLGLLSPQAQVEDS
Description: Based on the experimental method of fluorescence microfluidic mobility shift assay, the IC50 value of the compound for competitive binding of ATP to kinases IRAK4 and FLT3 was determined. The initial detection concentration of the compound was 10 μM, which was diluted to 0.38 nM with a 4-fold gradient and assayed in duplicate. In this case, commercially available staurosporine was the standard control for the assay.
Information on reagents and consumables is as follows: • IRAK4 kinase (Carna, Cat. No. 09-145, Lot. No. 14CBS-0020 H) • FLT3 kinase (Carna, Cat. No. 08-154, Lot. No. 07CBS-2350) • Substrate peptide FAM-P2 (GL Biochem, Cat. No. 112394, Lot. No. P131014-XP112394) • Substrate peptide FAM-P8 (GL Biochem, Cat. No. 112396, Lot. No. P170731-SY112396) • ATP (adenosine triphosphate, Sigma, Cat. No. A7699-1G, CAS No. 987-65-5) • DMSO (dimethyl sulfoxide, Sigma, Cat. No. D2650) • EDTA (ethylenediaminetetraacetic acid, Sigma, Cat. No. E5134, CAS No. 60-00-4) • Staurosporine (Selleckchem, Cat. No. 51421) • HEPES (4-(2-Hydroxyethyl)-1-piperazineethanesulfonic acid, Gibco, Cat. No. 15630-080) • Brij-35 solution (Polyoxyethylene lauryl ether, Sigma, Cat. No. B41840-100 mL) • DTT (dithiothreitol, Sigma, Cat. No. D0632-20G) • 0.2% Coating Reagent #3 (0.2% coating reagent, Perkin Elmer, Cat. No. 760050) • 96-well plate (Corning, Cat. No. 3365) • 384-well plate (Corning, Cat. No. 3573) Experimental operation method: • 1) FLT3 and IRAK4 kinases were dissolved in the kinase buffer (50 mM HEPES pH 7.5, 10 mM MgCl2, 2 mM DTT, and 0.01% Brij-35) at final concentrations of 0.9 nM, 30 nM, and 6 nM, respectively. • 2) The substrate peptide FAM-P2 and the substrate peptide FAM-P8, together with ATP, were dissolved in the above kinase buffer, respectively, where the final concentrations of the substrate peptide FAM-P2 and ATP for the determination of FLT3 were 3 μM and 97 μM, respectively; and the final concentrations of the substrate peptide FAM-P8 and ATP for the determination of IRAK4 were 3 μM and 10 μM, respectively. • 3) Compound dilution: The compound was first diluted to 50 μM, and then diluted downward with DMSO in a 4-fold gradient. In this case, the solution without compound and kinase served as the blank control, corresponding to the “minimum value” shown below; the solution without compound but containing kinase, adenosine triphosphate, DMSO, and the buffer served as the positive control, corresponding to the “maximum value” shown below. • 4) Kinase reaction and termination: 10 μL of the kinase buffer was added to a 384-well plate containing 5 μL of the compound to be tested, and the mixture was incubated for 10 minutes at room temperature; another 10 μL, of buffer containing the substrate peptide and adenosine triphosphate was added to the 384-well plate, and after incubation for one hour at 28° C., 25 μL, of termination solution (100 mM HEPES pH 7.5, 50 mM EDTA, 0.2% Coating Reagent #3, and 0.015% Brij-35) was added to each well for reaction termination. • 5) Data reading: CaliperEZ Reader II instrument was used to read the conversion rate data. Setting conditions: downstream voltage as −500 V, upstream voltage as −2250 V, base pressure as −0.5 PSI, and screening pressure as −1.2 PSI. • 6) Data calculation: the conversion rate data was copied from CaliperEZ Reader II, and the conversion rate was converted into inhibition rate data.

IRAK4 kinase = target: T2, IRAK4 kinase (Homo sapiens, UniProt Q9NWZ3); experiment: Kinase inhibition, fluorescence microfluidic mobility shift assay (IRAK4); assay type: biochemical; details: substrate peptide FAM-P8 3 μM, ATP 10 μM; one hour at 28° C.; assayed in duplicate
T2 sequence (Q9NWZ3 1-460): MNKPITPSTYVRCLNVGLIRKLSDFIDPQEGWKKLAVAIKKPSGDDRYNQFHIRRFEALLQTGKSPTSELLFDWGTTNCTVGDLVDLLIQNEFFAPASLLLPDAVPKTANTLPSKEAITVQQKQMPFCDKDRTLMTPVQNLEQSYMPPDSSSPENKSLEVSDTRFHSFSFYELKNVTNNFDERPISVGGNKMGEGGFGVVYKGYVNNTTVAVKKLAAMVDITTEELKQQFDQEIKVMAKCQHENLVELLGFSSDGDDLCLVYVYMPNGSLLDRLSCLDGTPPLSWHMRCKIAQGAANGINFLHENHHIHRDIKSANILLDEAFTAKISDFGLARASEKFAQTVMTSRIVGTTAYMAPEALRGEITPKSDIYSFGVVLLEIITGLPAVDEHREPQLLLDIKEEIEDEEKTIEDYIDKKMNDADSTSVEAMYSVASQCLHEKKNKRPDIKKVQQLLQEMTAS

MV4-11 cells = experiment: Cytotoxicity against MV4-11 cells (CellTiter-Glo); assay type: cell-based; details: Homo sapiens, incubated for 72 hours, CellTiter-Glo chemiluminescence
Description: Determination of the IC50 Value of the Compound's Cytotoxicity Against MV4-11 Cells
MV-4-11 cells were cultured with IMDM complete medium (IMDM+10% fetal bovine serum+1% Penicillin-Streptomycin, a mixture of penicillin-streptomycin). • 2. MV-4-11 cells in good condition were collected and washed twice with DPBS ([…] phosphate buffered saline solution). • 3. MV-4-11 cells were resuspended with IMDM complete medium, the cell density was adjusted to 1.11×10^6 cells/mL, and the MV-4-11 cells were added to 96-well plates at 90 μL per well. • 4. A compound solution with 10-fold concentration was prepared with IMDM complete medium, 10 μL of the compound solution with 10-fold concentration was added to the cells in the 96-well plate, mixed well, and then the 96-well plate was placed in a 5% CO2 incubator at 37° C. and incubated for 72 hours. • 5. After the incubation, the 96-well plate was taken out and equilibrated for 30 minutes at room temperature. Then 100 μL of CellTiter Glo reagent was added to each well and mixed on a horizontal shaker for 2 minutes. • 6. The 96-well plate was removed, equilibrated at room temperature for 10 minutes, and the chemiluminescence value was detected on a microplate reader.

Row | Structure (SMILES) | IC50 (FLT3 kinase) [nM] | IC50 (IRAK4 kinase) [nM] | IC50 (MV4-11 cells) [nM]
1 | CC(C)(O)c1cc2nn(C3CC4CCC(C3)N4)cc2cc1NC(=O)c1coc(-c2ccnc(C(F)(F)F)c2)n1 (stereo not drawn) [II-118] | 0.44 | 12.2 | 6.2
2 | Cc1cc(-c2nc(C(=O)Nc3cc4cn(CCC(C)(C)O)nc4cc3N3CCC(O)C3)co2)ccn1 (stereo not drawn) [II-102] | 0.85 | 21 | 8
3 | COc1cc2nn(C3CCNCC3)cc2cc1NC(=O)c1coc(-c2ccncc2)n1 [II-10C] | 2.9 | 25 | 4.3
4 | Cc1cc(-c2nc(C(=O)Nc3cc4oc(N5CCOCC5)nc4nc3C(C)(C)O)co2)ccn1 [II-122] | 6.23 | 14.1 | 33
5 | COc1cc2nn(C3CCS(=O)(=O)CC3)cc2cc1NC(=O)c1coc(-c2ccnc(C)c2)n1 [II-96] | 0.22 | 3.7 | 6.5
6 | Cc1cc(-c2nc(C(=O)Nc3cc4cn(C5CC6CCC(C5)O6)nc4cc3C(C)(C)O)co2)ccn1 (stereo not drawn) [II-114] | 0.26 | 5.9 | 1.3
7 | Cc1cc(-c2nc(C(=O)Nc3cc4cc(CCC(C)(C)O)nn4cc3C(C)(C)O)co2)ccn1 [II-28] | 0.79 | 16 | 3.1
8 | CC(C)(O)c1cc2nn(C3CCOCC3)cc2cc1NC(=O)c1coc(-c2ccnc(C(F)(F)F)c2)n1 [II-121] | 3.5 | 9.1 | 33
9 | Cc1cc(-c2nc(C(=O)Nc3cc4cn(C5CCOC(C)(C)C5)nc4cc3C(C)(C)O)co2)ccn1 (stereo not drawn) [II-103] | 0.35 | 3.2 | 3
10 | Cc1cc(-c2nc(C(=O)Nc3cc4cn(C5CCOCC5)nc4cc3C(C)(C)O)co2)ccn1 [II-56] | 0.24 | 3.4 | 4.6
11 | Cc1cc(-c2nc(C(=O)Nc3cc4cn(C5CCN(C6COC6)CC5)nc4cc3C(C)(C)O)co2)ccn1 [II-106] | 0.41 | 3.3 | 8
12 | Cc1cc(-c2nc(C(=O)Nc3cc4cn(C5CC6CCC(C5)N6C)nc4cc3C(C)(C)O)co2)ccn1 (stereo not drawn) [II-101] | 0.48 | 22 | 7
13 | CC(C)(O)c1cc2nn([C@H]3CC[C@@H](O)CC3)cc2cc1NC(=O)c1coc(-c2ccnc(C(F)(F)F)c2)n1 [II-112] | 2.8 | 6.96 | 11.9
14 | Cc1cc(-c2nc(C(=O)Nc3cc4cn(CCC5CCNC5=O)nc4cc3C(C)(C)O)co2)ccn1 (stereo not drawn) [II-1] | 0.34 | 11 | 19.4
15 | CC(C)(O)CCc1cc2cc(NC(=O)c3coc(-c4ccnc(C(F)(F)F)c4)n3)c(C(C)(C)O)cn2n1 [II-92] | 15.5 | 4.86 | 63.2
16 | Cc1cc(-c2nc(C(=O)Nc3cc4cn(CC5(F)CNC5)nc4cc3C(C)(C)O)co2)ccn1 [II-108] | 0.29 | 11.7 | 22
